According to ChEMBL document CHEMBL1221262, “Synthesis and antituberculosis activity of new fatty acid amides” (2010):
In brackets after ≈: the same amount, converted by molar mass.

What follows are compounds tested on Mycobacterium tuberculosis (assay: Antitubercular activity against Mycobacterium tuberculosis H37Rv after 7 days by resazurin microtiter assay). Conditions: 168 h.
Assay type: functional
CCCCCCCC/C=C\CCCCCCCC(=O)N1CCCCC1 was tested, and the MIC was 50 µg/mL (≈ 143 µM).
For CCCCCCCC/C=C\CCCCCCCC(=O)N1CCOCC1, the MIC was 25 µg/mL (≈ 71.1 µM).
In the case of CCCCCC[C@@H](O)C/C=C\CCCCCCCC(=O)NCc1ccccc1, the MIC is reported as 25 µg/mL (≈ 64.5 µM).
CCCCCC[C@@H](O)C/C=C\CCCCCCCC(=O)N[C@H](C)c1ccccc1 was tested, and the MIC was 100 µg/mL (≈ 249 µM).
For CCCCCC[C@@H](O)C/C=C\CCCCCCCC(=O)N[C@@H](C)c1ccccc1, the MIC was 100 µg/mL (≈ 249 µM).
In the case of CCCCCC[C@@H](O)C/C=C\CCCCCCCC(=O)N1CCCC1, the MIC is reported as 12.5 µg/mL (≈ 35.6 µM).
Work on CCCCCC[C@@H](O)C/C=C\CCCCCCCC(=O)N1CCOCC1 yielded an MIC of 50 µg/mL (≈ 136 µM).
Compound CCCCC/C=C\C/C=C\CCCCCCCC(=O)N[C@H](C)c1ccccc1 has an MIC of 100 µg/mL (≈ 261 µM).
With CCCCC/C=C\C/C=C\CCCCCCCC(=O)N[C@@H](C)c1ccccc1 the MIC was 50 µg/mL (≈ 130 µM).
Compound CCCCC/C=C\C/C=C\CCCCCCCC(=O)N1CCCC1 has an MIC of 12.5 µg/mL (≈ 37.5 µM).
For CCCCCCCCCCCCCCCC(=O)N[C@H](C)c1ccccc1, the MIC was greater than 100 µg/mL.
CCCCCCCCCCCCCCCC(=O)N[C@@H](C)c1ccccc1 showed an MIC greater than 100 µg/mL.
CCCCCCCCCCCCCCCC(=O)N1CCCC1 was tested, and the MIC was 25 µg/mL (≈ 80.8 µM).
CCCCCCCCCCCCCCCC(=O)N1CCCCC1 showed an MIC of 25 µg/mL (≈ 77.3 µM).
CCCCCCCCCCCCCCCCCC(=O)N[C@H](C)c1ccccc1 showed an MIC greater than 100 µg/mL.
With CCCCCCCCCCCCCCCCCC(=O)N[C@@H](C)c1ccccc1 the MIC was greater than 100 µg/mL.
For CCCCCCCC/C=C\CCCCCCCC(=O)N1CCCC1, the MIC was 25 µg/mL (≈ 74.5 µM).
CCCCCCCC/C=C\CCCCCCCC(=O)NCCO [OLEOYLETHANOLAMIDE] showed an MIC of 25 µg/mL (≈ 76.8 µM).
Work on CCCCCCCCCCCCCCCC(=O)NCCO [PALMIDROL] yielded an MIC greater than 100 µg/mL.
